The text below walks through data of publication PMC10111423, “Antimalarial Imidazopyridines Incorporating an Intramolecular Hydrogen Bonding Motif: Medicinal Chemistry and Mechanistic Studies” (ACS Infectious Diseases, 2023).

As a reminder, the IC50 is the concentration that gives 50% inhibition. In general, solubility refers to the concentration that dissolves in the medium under given conditions. Low readings indicate little dissolved substance, high ones much dissolved substance.

For data set [1], the system named is chloroquine-sensitive (NF54) strain of P. falciparum. In words: In vitro asexual blood-stage antiplasmodium pLDH assay, NF54 strain. Type of data set: cell-based. Conditions: Plasmodium falciparum, NF54; pLDH, 72 h, n ≥ 3; read-out: In vitro antiplasmodium activity IC50 PfNF54 strain. Here is the method:
(§1) Compounds were screened against multi-drug-resistant (K1) and sensitive (NF54) strains of P. falciparum in vitro using a parasite lactate dehydrogenase assay (pLDH) (the method is described fully in the Supporting Information). […]
(§2) In vitro Asexual Blood Stage Antiplasmodium Assay
(§3) Parasites were cultured as per the method of Trager and Jensen,1 with modifications. IC50 values were determined using parasite lactate dehydrogenase as a marker for survival (Makler […]
(§4) et al, 1993). The test samples were prepared to a 10 mmol/L stock solution in 100% DMSO.
(§5) Samples were tested as a suspension if not completely dissolved. Further dilutions to the desired starting concentration were freshly prepared in growth media on each occasion of the experiment. The standard antimalarial drugs chloroquine (CQ) and artesunate (Arts) were used as the reference drug in all experiments. A full dose-response was performed for all compounds in a 96-well plate to determine the concentration inhibiting 50% of parasite growth (IC50– value). Test samples were tested at a starting concentration of 6mmol/L, which was then serially diluted 2-fold in growth medium to generate the tested concentration range. The same dilution technique was used for all samples. CQ and Arts were tested from a starting concentration of 1µg/mL. The highest concentration of solvent to which the parasites were exposed was <0.1% and has no measurable effect on the parasite viability (data not shown).
(§6) The assay plate was incubated at 37 °C for 72h in a sealed gas chamber under 3% O2 and 4% CO2 with the balance being N2. After 72h, the wells in the assay plate were gently resuspended, and 15µL from each well was transferred to a duplicate plate containing 100µL of Malstat reagent and 25µL of nitroblue tetrazolium solution in each well. Plates were left to develop for 20 minutes in the dark and then absorbance of each well was quantified using a spectrophotometer at 620nm wavelength.
(§7) The remaining population of parasites at each concentration of the test compound was determined by comparing the absorbance of each well to the absorbance of a well containing […]
(§8) the drug-free control. […]
(§9) The initial 100 µg/mL solution is serially diluted 10-

Data set [2] concerns multidrug-resistant (K1) strain of P. falciparum. In words: In vitro asexual blood-stage antiplasmodium pLDH assay, K1 strain. The note with it: Plasmodium falciparum, 72 h, n ≥ 3, read-out: In vitro antiplasmodium activity IC50 PfK1 strain. The format is cell-based. Here is the method:
as §1, §2, §3, §4, §5, §6, §7, §8, §9

The nature of data set [3]: In vitro cytotoxicity MTT assay. Type of data set: cell-based, Chinese hamster. Conditions: Chinese hamster, Chinese hamster ovarian (CHO) cells; MTT assay. Here is the method: (§10) In vitro cytotoxicity was performed on the Chinese Hamster Ovarian cell line by measuring cellular growth and survival calorimetrically through the MTT assay.[29],[30] The formation of tetrazolium salt was used as a measure of chemosensitivity and growth. (Details of this assay is described in the Supporting Information.) page 19: et al, 1993). The test samples were prepared to a 10 mmol/L stock solution in 100% DMSO. Samples were tested as a suspension if not completely dissolved. Further dilutions to the desired starting concentration were freshly prepared in growth media on each occasion of the experiment. The standard antimalarial drugs chloroquine (CQ) and artesunate (Arts) were used as the reference drug in all experiments. A full dose-response was performed for all compounds […] value). Test samples were tested at a starting concentration of 6mmol/L, which was then serially diluted 2-fold in growth medium to generate the tested concentration range. The same dilution technique was used for all samples. CQ and Arts were tested from a starting concentration of 1μg/mL. The highest concentration of solvent to which the parasites were exposed was <0.1% and has no measurable effect on the parasite viability (data not shown). The assay plate was incubated at 37 °C for 72h in a sealed gas chamber under 3% O2 and 4% CO2 with the balance being N2. After 72h, the wells in the assay plate were gently resuspended, and 15μL from each well was transferred to a duplicate plate containing 100μL of Malstat reagent and 25μL of nitroblue tetrazolium solution in each well. Plates were left to develop for 20 minutes in the dark and then absorbance of each well was quantified using a spectrophotometer at 620nm wavelength. The remaining population of parasites at each concentration of the test compound was determined by comparing the absorbance of each well to the absorbance of a well containing the drug-free control. Survival was plotted against concentration and the IC50 values were obtained using a non-linear dose-response curve fitting analysis via the Dotmatics software platform.2 In vitro Cytotoxicity Assay In vitro cytotoxicity was performed on the Chinese Hamster Ovarian cell line by measuring […] diphenyltetrazolium bromide (MTT) assay.3,4 The formation of tetrazolium salt was used as a measure of chemosensitivity and growth. 2 mg/mL stock solutions of the test compounds were prepared in DMSO and stored at -20 °C until required. The stock solution was subsequently diluted with the assay medium to make up an initial concentration of 100 μg/mL. The initial 100 μg/mL solution is serially diluted 10- S19 page 20: fold to attain six assay concentrations of 100-0.001 μg/mL. […] was used as the reference compound in this assay. The highest concentration of DMSO, which was used as the negative control, had no measurable effect on cell viability. After 44 hours of exposure of the cells to the test compounds, a solution of MTT was added. This was followed by an additional 4 hours of incubation at 37 °C. The assay plates were centrifuged, medium removed, and DMSO was added to the crystals. The amount of formazan was ascertained by measuring the absorbance at 540 nm. GraphPad Prism software was then used to generate IC50 values through a non-linear dose-response curve analysis. β-Hematin Inhibition Assay 20 mM stock solutions of controls and test compounds were made in DMSO. A solution […] was added to every well in columns 1-11 of a 96-well plate. 140 μL of water and 40 μL of 305.5 μM NP-40 were added to column 12 to mediate the formation of beta-hematin. 20 μL of test compounds (20 mM) were added to column 12 and 100 μL of this solution serially diluted to column 2, leaving column 1 blank (0 μM of test compound). 178.8 μL aliquot of hematin stock was suspended in 20 ml of a 1 M acetate buffer at pH 4.9. 100 μL of this hematin suspension was then added into each well, and the plates were incubated for ±5 hrs at 37°C. […]

In data set [4] the test system is Chinese hamster ovarian (CHO) cell line. In words: In vitro cytotoxicity MTT assay. Type of data set: cell-based. The note with it: CHO vs PfNF54. Here is the method: as §10
For orientation: Tetrazolium dyes change colour on reduction, which living cells bring about.

The test system of the next data set is β-hematin. The experiment in a line: β-Hematin inhibition assay (BHIA), cell-free NP-40 mediated. Conditions: mean of n = 3. The format is biochemical. Here is the method: page 20: fold to attain six assay concentrations of 100-0.001 μg/mL. […] was used as the reference compound in this assay. The highest concentration of DMSO, which was used as the negative control, had no measurable effect on cell viability. After 44 hours of exposure of the cells to the test compounds, a solution of MTT was added. This was followed by an additional 4 hours of incubation at 37 °C. The assay plates were centrifuged, medium removed, and DMSO was added to the crystals. The amount of formazan was ascertained by measuring the absorbance at 540 nm. GraphPad Prism software was then used to generate IC50 values through a non-linear dose-response curve analysis. β-Hematin Inhibition Assay 20 mM stock solutions of controls and test compounds were made in DMSO. A solution […] was added to every well in columns 1-11 of a 96-well plate. 140 μL of water and 40 μL of 305.5 μM NP-40 were added to column 12 to mediate the formation of beta-hematin. 20 μL of test compounds (20 mM) were added to column 12 and 100 μL of this solution serially diluted to column 2, leaving column 1 blank (0 μM of test compound). 178.8 μL aliquot of hematin stock was suspended in 20 ml of a 1 M acetate buffer at pH 4.9. 100 μL of this hematin […] pH 7.4 and 50% pyridine) and 60 μL of acetone were added to all wells. The absorbances of plate wells were recorded at 405 nm on a SpectraMax plate reader. Sigmoidal dose-response curves with variable slopes were fitted to the absorbance data using GraphPad Prism to obtain the IC50 values for each compound. In vitro Microsomal Stability Assay The in vitro microsomal stability assay was performed in duplicate in a 96-well micro titre […] individually in human (pool of 50, mixed gender), rat (pool of 711, male Sprague Dawley) and mouse (pool of 1634, male CD1) liver microsomes (final protein concentration of 0.4 mg/mL; Xenotech, Kansas, USA), suspended in 0.1M phosphate buffer (pH 7.4). Incubations were S20

The next data set is described as follows: Solubility. The format is physicochemical. The note with it: pH 6.5, aqueous buffer. An excerpt:
Table 1 In Vitro Antiplasmodium Activity, Cytotoxicity, BHIA, and Solubility | column: Solubility pH 6.5, μM

In brackets after ≈: the same amount, converted by molar mass.

Turning to `CCN(CCNc1cc2[nH]c(C3CC(F)(F)C3)nc2cn1)Cc1ccc(Cl)cc1O` [Compound 10, 5-Chloro-2-(((2-((2-(3,3-difluorocyclobutyl)-1H-imidazo[4,5-c]pyridin-6-yl)amino)ethyl)(ethyl)amino)methyl)phenol], the figures for the half-maximal inhibitory concentration (IC50) (in data set [1]; in data set [2]; in the data set with β-hematin) were 0.86 µM, 5.27 µM and 76 µM, respectively. Besides, the IC50 at 44 h in data set [3] was greater than 50 µM. For the same molecule, in data set [4], the “SI (selectivity index) = IC50 CHO/IC50 PfNF54” value was greater than 58.14. Further, in “Solubility”, the concentration in solution (solubility) was 175 µM (≈ 76.3 µg/mL).

For the molecule `CCN(CCNc1cc2[nH]c(C3CCCCC3)nc2cn1)Cc1ccc(Cl)cc1O` [Compound 11, 5-Chloro-2-(((2-((2-cyclohexyl-1H-imidazo[4,5-c]pyridin-6-yl)amino)ethyl)(ethyl)amino)methyl)phenol], the IC50 was found to be 0.69 µM in data set [1], 2.12 µM in data set [2] and 80 µM with β-hematin. In data set [3], this molecule yielded an IC50 at 44 h greater than 50 µM. In data set [4], the “SI (selectivity index) = IC50 CHO/IC50 PfNF54” value was greater than 72.46. The same molecule came in with a solubility in the data set “Solubility” of 140 µM (≈ 59.9 µg/mL).

In the case of `CCN(CCNc1cc2[nH]c(C3CCCN3C)nc2cn1)Cc1ccc(Cl)cc1O` (stereo not drawn) [Compound 13, 5-Chloro-2-((ethyl(2-((2-(1-methylpyrrolidin-2-yl)-1H-imidazo[4,5-c]pyridin-6-yl)amino)ethyl)amino)methyl)phenol], the half-maximal inhibitory concentration (IC50) in data set [1] amounted to 1.03 µM; in data set [2], 3.9 µM; with β-hematin, 285 µM. This molecule also registered an IC50 at 44 h in data set [3] greater than 50 µM. Also, the “SI (selectivity index) = IC50 CHO/IC50 PfNF54” value in data set [4] is greater than 48.54. In the data set “Solubility”, this molecule displayed a solubility of 175 µM (≈ 75.1 µg/mL).

Turning to `CCN(CCNc1cc2[nH]c(C3CCCCCC3)nc2cn1)Cc1ccc(Cl)cc1O` [Compound 15, 5-Chloro-2-(((2-((2-cycloheptyl-1H-imidazo[4,5-c]pyridin-6-yl)amino)ethyl)(ethyl)amino)methyl)phenol], the figures for the half-inhibitory concentration (IC50) (in data set [1]; in data set [2]; in the data set on β-hematin) were 0.67 µM, 2.48 µM and 137 µM, respectively. In data set [3], this molecule yielded an IC50 at 44 h of 50 µM. Also, the “SI (selectivity index) = IC50 CHO/IC50 PfNF54” value in data set [4] worked out at 74.60. For the same molecule, the concentration in solution in the data set “Solubility” (solubility) was 150 µM (≈ 66.3 µg/mL).

In the case of `CCN(CCNc1cc2[nH]c([C@H]3CC[C@H](C(F)(F)F)CC3)nc2cn1)Cc1ccc(Cl)cc1O` [Compound 16, 5-Chloro-2-((ethyl(2-((2-((1r,4r)-4-(trifluoromethyl)cyclohexyl)-1H-imidazo[4,5-c]pyridin-6-yl)amino)ethyl)amino)methyl)phenol], the values for the IC50 (in data set [1]; in data set [2]; with β-hematin) were 0.56 µM, 1.89 µM and 127 µM, respectively. In data set [3], the IC50 at 44 h is greater than 50 µM. Moreover, in data set [4], the “SI (selectivity index) = IC50 CHO/IC50 PfNF54” value is greater than 89.29. This molecule gave a solubility in the data set “Solubility” of 135 µM (≈ 67 µg/mL).

In the case of `CCN(CCNc1cc2[nH]c([C@H]3CC[C@@H](C(F)(F)F)CC3)nc2cn1)Cc1ccc(Cl)cc1O` [Compound 17, 5-Chloro-2-((ethyl(2-((2-((1r,4r)-4-(trifluoromethyl)cyclohexyl)-1H-imidazo[4,5-c]pyridin-6-yl)Amino)ethyl)amino)methyl)phenol], the IC50 in data set [1] is 0.95 µM; in data set [2], 1.71 µM; with β-hematin it was 239 µM. Also, the IC50 at 44 h in data set [3] was found to be 49.1 µM. The “SI (selectivity index) = IC50 CHO/IC50 PfNF54” value in data set [4] is listed as 51.68. In “Solubility”, the concentration in solution (solubility) came to 135 µM (≈ 67 µg/mL).

For `CCN(CCNc1cc2[nH]c(C3CCC(OC)CC3)nc2cn1)Cc1ccc(Cl)cc1O` (stereo not drawn) [Compound 18, 5-Chloro-2-((ethyl(2-((2-(4-methoxycyclohexyl)-1H-imidazo[4,5-c]pyridin-6-yl)amino)ethyl)amino)methyl)phenol], the IC50 in data set [1] turned out to be 2.91 µM; in data set [2], 2.34 µM; with β-hematin, 18 µM. Moreover, the IC50 at 44 h in data set [3] is greater than 50 µM. Moreover, the “SI (selectivity index) = IC50 CHO/IC50 PfNF54” value in data set [4] is greater than 17.18. The amount in solution in the data set “Solubility” (solubility) came to 120 µM (≈ 55 µg/mL).
